One experiment concerns RARγ -VP-16. Briefly: Retinoid inverse agonist assay: inhibition of basal luciferase activity of RARγ-VP-16 chimeric receptor in cotransfected CV-1 cells. Type of experiment: cell-based. Particulars: CV-1 cells cotransfected with RARγ -VP-16, ER-RXRα chimeric receptor and ERE-tk-Luc reporter. The source says:
Inverse agonists are ligands that are capable of inhibiting the basal receptor activity of unliganded receptors. […] Moreover, the biological effects associated with retinoid inverse agonists are distinct from those of retinoid agonists or antagonists. For example, RAR inverse agonists, but not RAR neutral antagonists, cause a dose-dependent inhibition of the protein MRP-8 in cultured human keratinocytes differentiated with serum. MRP-8 is a specific marker of cell differentiation, which is also highly expressed in psoriatic epidermis, but is not detectable in normal human skin. Thus, retinoid inverse agonists may offer a unique way of treating diseases such as psoriasis.
The activity of retinoid inverse agonists can be tested by the procedure of Klein et al. J. Biol. Chem. 271, 22692-22696 (1996) which is expressly incorporated herein by reference.
In this assay, retinoid inverse agonists are able to repress the basal activity of a […] -VP-16 chimeric receptor where the constituitively active domain of the herpes simplex virus (HSV) VP-16 is fused to the N-terminus of RARγ. […] Retinoid inverse agonists are able to inhibit the basal luciferase activity in these cells in a dose dependent manner and IC50 s measured.

A further experiment deals with T1, RARα (Homo sapiens, UniProt P10276).
T1 sequence (P10276 1-462): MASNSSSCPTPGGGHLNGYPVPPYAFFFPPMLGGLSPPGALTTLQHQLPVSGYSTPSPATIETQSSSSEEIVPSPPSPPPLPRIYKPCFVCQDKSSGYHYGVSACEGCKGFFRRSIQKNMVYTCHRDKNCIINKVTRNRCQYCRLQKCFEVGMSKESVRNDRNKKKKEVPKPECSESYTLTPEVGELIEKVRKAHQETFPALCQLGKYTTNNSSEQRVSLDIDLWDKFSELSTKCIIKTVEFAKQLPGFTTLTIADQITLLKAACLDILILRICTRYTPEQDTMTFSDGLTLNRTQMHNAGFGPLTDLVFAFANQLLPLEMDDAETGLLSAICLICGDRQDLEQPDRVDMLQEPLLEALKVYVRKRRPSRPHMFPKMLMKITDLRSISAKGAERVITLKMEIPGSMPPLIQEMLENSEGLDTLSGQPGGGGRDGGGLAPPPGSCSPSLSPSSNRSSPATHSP
Briefly: Ligand binding assay, RARα. An excerpt:
(§1) Other assays described below, measure the ability of the compounds of the present invention to bind to, and/or activate various retinoid receptor subtypes. When in these assays a compound binds to a given receptor subtype and activates the transcription of a reporter gene through that subtype, then the compound is considered an agonist of that receptor subtype. […] In the below described assays the ability of the compounds to bind to RARα, RARβ, RARγ, RXRα, RXRβ and RXRγ receptors, and the ability or inability of the compounds to activate transcription of a reporter gene through these receptor subtypes can be tested.
(§2) A holoreceptor transactivation assay and a ligand binding assay which measure the antagonist/agonist like activity of the compounds of the invention, or their ability to bind to the several retinoid receptor subtypes, respectively, are described in published PCT Application No. WO WO93/11755 (particularly on pages 30-33 and 37-41) published on Jun. 24, 1993, the specification of which is also incorporated herein by reference. A description of the holoreceptor transactivation assay is also provided below.
(§3) CV1 cells (5,000 cells/well) were transfected with an RAR reporter plasmid MTV-TREp-LUC (50 ng) along with one of the RAR expression vectors (10 ng) in an automated 96-well format by the calcium phosphate procedure of Heyman et al. Cell 68, 397-406, (1992). For RXRα and RXRγ transactivation assays, an RXR-responsive reporter plasmid CRBPII-tk-LUC (50 ng) along with the appropriate RXR expression vectors (10 ng) was used substantially as described by Heyman et al. above, and Allegretto et al. J. Biol. Chem. 268, 26625-26633. For RXRβ transactivation assays, an RXR-responsive reporter plasmid CPRE-tk-LUC ([…]) along with RXRβ expression vector ([…]) was used as described in above. These reporters contain DRI elements from human CRBPII and certain DRI elements from promoter, respectively. (see Mangelsdorf et al. The Retinoids: Biology, Chemistry and Medicine, pp 319-349, Raven Press Ltd., New York and Heyman et al., cited above) (1, 8). A β-galactosidase (50 ng) expression vector was used as an internal control in the transfections to normalize for variations in transfection efficiency. The cells were transfected in triplicate for 6 hours, followed by incubation with retinoids for 36 hours, and the extracts were assayed for luciferase and β-galactosidase activities. The detailed experimental procedure for holoreceptor transactivations has been described in Heyman et al. and Allegretto et al., cited above. The results obtained in this assay are expressed in EC50 numbers, as they are also in the chimeric receptor transactivation assay. The Heyman et al. Cell 68, 397-406, Allegretto et al. J. Biol. Chem. 268, 26625-26633, and Mangelsdorf et al. The Retinoids: Biology, Chemistry and Medicine, pp 319-349, Raven Press Ltd., New York, are expressly incorporated herein by reference. The results of ligand binding assay are expressed in Kd numbers. (See Cheng et al. Biochemical Pharmacology Vol. 22 pp 3099-3108, expressly incorporated herein by reference.)

A further experiment concerns the target T2, RARγ (Homo sapiens, UniProt P13631).
T2 sequence (P13631 1-454): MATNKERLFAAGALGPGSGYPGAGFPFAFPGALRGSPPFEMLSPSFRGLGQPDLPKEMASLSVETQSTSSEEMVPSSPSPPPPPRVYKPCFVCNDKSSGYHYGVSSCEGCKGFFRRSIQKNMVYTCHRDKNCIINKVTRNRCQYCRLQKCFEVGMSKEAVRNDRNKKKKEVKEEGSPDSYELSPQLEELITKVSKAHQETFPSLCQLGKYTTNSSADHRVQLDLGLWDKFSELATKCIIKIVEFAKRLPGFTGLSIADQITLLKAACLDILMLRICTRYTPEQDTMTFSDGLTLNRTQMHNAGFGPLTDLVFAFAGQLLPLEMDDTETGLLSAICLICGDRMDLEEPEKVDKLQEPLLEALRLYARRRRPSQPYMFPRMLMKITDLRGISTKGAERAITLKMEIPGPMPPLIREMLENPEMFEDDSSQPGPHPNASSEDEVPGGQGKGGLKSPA
Briefly: Ligand binding assay, RARγ. The source says: Other assays described below, measure the ability of the compounds of the present invention to bind to, and/or activate various retinoid receptor subtypes. When in these assays a compound binds to a given receptor subtype and activates the transcription of a reporter gene through that subtype, then the compound is considered an agonist of that receptor subtype. […] In the below described assays the ability of the compounds to bind to RARα, RARβ, RARγ, RXRα, RXRβ and […]. receptors, and the ability or inability of the compounds to activate transcription of a reporter gene through these receptor subtypes can be tested. A holoreceptor transactivation assay and a ligand binding assay which measure the antagonist/agonist like activity of the compounds of the invention, or their ability to bind to the several retinoid receptor subtypes, respectively, are described in published PCT Application No. […] A description of the holoreceptor transactivation assay is also provided below. […] Cell 68, 397-406, (1992). For RXRα and RXRγ transactivation assays, an RXR-responsive reporter plasmid CRBPII-tk-LUC (50 ng) along with the appropriate RXR expression vectors (10 ng) was used substantially as described by Heyman et al. above, and Allegretto et al. J. Biol. Chem. 268, 26625-26633. […] These reporters contain DRI elements from human CRBPII and certain DRI elements from promoter, respectively. (see Mangelsdorf et al. The Retinoids: Biology, Chemistry and Medicine, pp 319-349, Raven Press Ltd., New York and Heyman et al., cited above) (1, 8). A β-galactosidase (50 ng) expression vector was used as an internal control in the transfections to normalize for variations in transfection efficiency. The cells were transfected in triplicate for 6 hours, followed by incubation with retinoids for 36 hours, and the extracts were assayed for luciferase and β-galactosidase activities. The detailed experimental procedure for holoreceptor transactivations has been described in Heyman et al. and Allegretto et al., cited above. The results obtained in this assay are expressed in EC50 numbers, as they are also in the chimeric receptor transactivation assay. The Heyman et al. Cell 68, 397-406, Allegretto et al. J. Biol. Chem. 268, 26625-26633, and Mangelsdorf et al. The Retinoids: Biology, Chemistry and Medicine, pp 319-349, Raven Press Ltd., New York, are expressly incorporated herein by reference. The results of ligand binding assay are expressed in Kd numbers.

Another experiment has as its target T3, RARβ (Homo sapiens, UniProt P10826).
T3 sequence (P10826 1-455): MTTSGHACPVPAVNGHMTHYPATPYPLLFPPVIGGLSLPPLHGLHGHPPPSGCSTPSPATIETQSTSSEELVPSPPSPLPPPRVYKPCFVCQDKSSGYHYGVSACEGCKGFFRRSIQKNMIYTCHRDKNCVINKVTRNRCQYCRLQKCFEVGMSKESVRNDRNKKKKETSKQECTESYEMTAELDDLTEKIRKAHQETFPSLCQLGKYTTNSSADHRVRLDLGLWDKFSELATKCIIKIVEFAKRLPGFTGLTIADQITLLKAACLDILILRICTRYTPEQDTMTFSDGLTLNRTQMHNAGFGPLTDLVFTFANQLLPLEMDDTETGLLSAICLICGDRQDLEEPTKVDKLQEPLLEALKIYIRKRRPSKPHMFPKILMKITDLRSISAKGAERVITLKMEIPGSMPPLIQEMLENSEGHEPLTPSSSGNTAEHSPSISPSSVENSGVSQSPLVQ
Briefly: Ligand binding assay, RARβ.
Excerpt: as §1, §2, §3

By IC50 is commonly meant the concentration needed to halve the response being measured. Lower therefore signals inhibition by little substance. One may read the Kd as the constant that tells how readily two partners part at equilibrium.

As for `CCOC(=O)c1ccc(C#C/C=C/C2C(c3ccc(C)cc3)=CCCC2(C)C)cc1` (racemic) [Compound 10, Ethyl (±)-(E)-4-(4-(2-(4-Methylphenyl)-4,4-dimethylcyclohexen-3-yl)but-3-en-1-yn-1-yl)benzoate], the IC50 with RARγ -VP-16 amounted to 1 nM.

With `Cc1ccc(C2=CCCC(C)(C)C2/C=C/C#Cc2ccc(C(=O)O)cc2)cc1` (racemic) [Compound 14, (±)-(E)-4-(4-(2-(4-Methylphenyl)-4,4-dimethylcyclohexen-3-yl)but-3-en-1-yn-1-yl)benzoic acid], the Kd on RARα was 454 nM; at RARγ, 98 nM; at RARβ it was 24 nM.

For `Cc1ccc(C2=C(/C=C/C#Cc3ccc(C(=O)O)cc3)C(C)(C)CCC2)cc1` [Compound 13, (E)-4-(4-(1-(4-Methylphenyl)-3,3-dimethylcyclohexen-2-yl)but-3-en-1-yn-1-yl)benzoic Acid], the Kd came to 148 nM at RARα, 21 nM at RARγ and 6 nM on RARβ.

On to `CCc1ccc(C2=C(/C=C/C#Cc3ccc(C(=O)O)cc3)C(C)(C)CCC2)cc1` [Compound 15, (E)-4-(4-(1-(4-Ethylphenyl)-3,3-dimethylcyclohexen-2-2l)but-3-en-1-yn-1-yl)benzoic acid], for which the figures for the dissociation constant (Kd) at RARα, on RARγ and at RARβ were 136 nM, 36 nM and 4 nM, respectively.

Take `CC1(C)CCCC(c2ccc(C(C)(C)C)cc2)=C1/C=C/C#Cc1ccc(C(=O)O)cc1` [Compound 16, (E)-4-(4-(1-(4-tert-butylphenyl)-3,3-dimethylcyclohexen-2-yl)but-3-en-1-yn-1-yl)benzoic acid]: the Kd on RARα was determined as 875 nM; on RARγ it was 333 nM; on RARβ it was 13 nM.

`Cc1ccc(C2=CCC(C)(C)C=C2/C=C/C#Cc2ccc(C(=O)O)cc2)cc1` [Compound 24, (E)-4-(4-(2-(4-Methylphenyl)-5,5-dimethyl-1,3-cyclohexadien-3-yl)but-3-ene-1-yn-1-yl)benzoic Acid]: the equilibrium dissociation constant (Kd) at RARα is 134 nM; on RARγ it was 33 nM; at RARβ, 48 nM.

Values taken from US5760276A, “Aryl-and heteroarylcyclohexenyl substituted alkenes having retinoid agonist, antagonist or inverse agonist type biological activity” (Allergan, priority 1997, dated 1998).
